Structures are written as SMILES.

Common to all, as to assay: greenhouse pre-emergence herbicidal test
Format in all cases: in vivo
Details in all cases: 250 g/ha, scale 0 to 100

In assay [1] the test system is Echinocloa crus-galli. A digest of the protocol:
(§1)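 Seeds sown in loamy sand (~3.0% humus); compounds suspended or emulsified in water, sprayed directly after sowing, pots covered until rooting. Kept at 10-25° C. or 20-35° C. by species for 2 to 4 weeks. Damage scored visually 0-100 (100 = no emergence or complete aerial destruction).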

The subject of assay [2] is Alopercurus myosuroides. Summed up:
as §1

In assay [3] the test system is Abutilon theophrasti. A digest of the protocol:
(§2)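 Compounds suspended or emulsified in water were sprayed onto loamy sand (about 3.0% humus) right after sowing; pots were hooded until rooting. Damage was scored on a 0–100 scale (100 = no emergence or complete aerial destruction, 0 = normal growth) after 2 to 4 weeks.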

Assay [4] deals with Amaranthus retroflexus. Summed up: as §1
Assay [5] deals with Setaria faberi. Summed up: as §2

As for `CC(C)(F)c1nc(N)nc(Nc2c(F)c(F)c(F)c(F)c2OCc2ccccc2)n1` [Example 236], the herbicidal activity was found to be 100% in assay [1], 95% in assay [2] and 100% in assay [3].
As for `Cc1ccccc1COc1c(F)cc(F)c(F)c1Nc1nc(N)nc(C(C)F)n1` (stereo not shown) [Example 229], the herbicidal activity in assay [1], in assay [2] and in assay [3] was 100% in each case.
Take `CC(C)CC(F)c1nc(N)nc(Nc2c(F)cccc2OCc2ccccc2)n1` (stereo not shown) [Example 233]: the herbicidal activity in assay [1] is 95%; in assay [2], 80%; in assay [3] it was 75%.
For the molecule `CC(C)(F)c1nc(N)nc(Nc2c(C#N)cccc2OCc2ccccc2)n1` [Example 128], the herbicidal activity in assay [4] came out at 100%; in assay [5] it was 90%; in assay [3] it was 90%.
As for `COC(C)(C)c1nc(N)nc(Nc2c(F)c(F)cc(F)c2OCc2cccc(Cl)c2)n1` [Example 252], the herbicidal activity in assay [4] was determined as 95%; in assay [5] it was 100%; in assay [3], 100%.
On to `CC(C)(F)c1nc(N)nc(Nc2c(F)cc(F)c(F)c2OCc2ccccc2)n1` [Example 188], for which the herbicidal activity in assay [1], in assay [2] and in assay [3] was 100% in each case.
`Cc1ccccc1COc1cccc(F)c1Nc1nc(N)nc(C(C)(C)F)n1` [Example 30]: the herbicidal activity in assay [1], in assay [4], in assay [5] and in assay [3] was 100% each time.
Regarding `CC(C)(F)c1nc(N)nc(Nc2c(F)c(F)cc(Cl)c2OCc2ccccc2)n1` [Example 234], the herbicidal activity in assay [1] is reported as 100%; in assay [2], 90%; in assay [3], 100%.
Consider `COC(C)(C)c1nc(N)nc(Nc2c(F)cccc2OC(F)(F)c2cccc(F)c2)n1` [Example 131], for which the herbicidal activity amounted to 85% in assay [4], 90% in assay [5] and 90% in assay [3].
Regarding `COC(C)c1nc(N)nc(Nc2c(F)c(F)cc(F)c2OCc2cccc(Cl)c2)n1` (stereo not shown) [Example 244], the herbicidal activity worked out at 75% in assay [4], 75% in assay [5] and 85% in assay [3].
With `COc1cccc(COc2c(F)ccc(F)c2Nc2nc(N)nc(C(C)(C)F)n2)c1` [Example 139], the herbicidal activity in assay [1], in assay [4], in assay [5] and in assay [3] was 100% throughout.
In the case of `Nc1nc(Nc2c(F)cccc2OCc2ccccc2)nc(C2(F)CCCCC2)n1` [Example 31], the herbicidal activity in assay [1] is on record as 100%; in assay [4], 75%; in assay [3] it was 85%.
Take `CC(C)(F)c1nc(N)nc(Nc2c(F)cccc2OCc2ccsc2)n1` [Example 22]: the herbicidal activity in assay [1], in assay [4], in assay [5] and in assay [3] was 100% in each case.
`CCC(F)c1nc(N)nc(Nc2c(F)cccc2OCc2ccccc2)n1` (stereo not shown) [Example 35]: the herbicidal activity in assay [1], in assay [4], in assay [5] and in assay [3] was 100% throughout.
Consider `COC(C)(C)c1nc(N)nc(Nc2c(F)c(F)cc(F)c2OCc2ccc(F)cc2)n1` [Example 250], for which the herbicidal activity in assay [1], in assay [4] and in assay [3] was 100% throughout.
Turning to `CC(C)(F)c1nc(N)nc(Nc2c(F)cccc2OCc2cccc(Cl)c2)n1` [Example 47], the values for the herbicidal activity in assay [1], in assay [4] and in assay [3] were 80%, 100% and 100%, respectively.

The record behind these values is patent publication US11992012B2, “Diaminotriazine compounds” (BASF SE, priority 2018, dated 2024).
